From ChEMBL document CHEMBL2203036, “Discovery of 1-[2-(2,4-dimethylphenylsulfanyl)phenyl]piperazine (Lu AA21004): a novel multimodal compound for the treatment of major depressive disorder” (J Med Chem, 2011)

Target: 5-hydroxytryptamine receptor 2C (Homo sapiens) (UniProt P28335)
Experiment: Binding affinity to human 5HT2C receptor

Chain of 5-hydroxytryptamine receptor 2C (Homo sapiens) (P28335 whole entry, looked up): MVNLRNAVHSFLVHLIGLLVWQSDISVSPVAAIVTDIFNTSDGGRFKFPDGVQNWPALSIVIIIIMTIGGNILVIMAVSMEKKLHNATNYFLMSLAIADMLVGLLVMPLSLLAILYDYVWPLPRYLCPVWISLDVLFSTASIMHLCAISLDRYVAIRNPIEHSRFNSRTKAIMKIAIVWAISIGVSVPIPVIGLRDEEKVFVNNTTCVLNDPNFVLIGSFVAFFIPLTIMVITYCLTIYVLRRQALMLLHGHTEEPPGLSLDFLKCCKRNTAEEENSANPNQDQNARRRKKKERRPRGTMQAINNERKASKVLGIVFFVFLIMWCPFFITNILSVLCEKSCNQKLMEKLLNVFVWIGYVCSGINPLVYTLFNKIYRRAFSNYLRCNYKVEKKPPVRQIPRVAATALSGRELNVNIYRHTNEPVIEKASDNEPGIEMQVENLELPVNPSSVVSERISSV

`Cc1ccc(Sc2ccccc2N2CCNCC2)c(C)c1.Cl` was tested, and the Ki was 180 nM.
